The values that follow come from US12202790B2, “Sulfonamide derivatives having selective Nox inhibiting activity” (GLUCOX BIOTECH AB, priority 2018, dated 2025).

pKi: −log10 of the molar value.

Experiment [1] has as its target Nox1 expressing CHO cells (Homo sapiens (Human), UniProt Q9Y5S8). The experiment in a line: Oxygen consumption in Nox1 expressing CHO cells. In kind it is cell-based.
Experiment [2] has as its system rat lens epithelial explants. The experiment in a line: TGFβ-induced lens epithelial to mesenchymal transition (EMT) in rat lens epithelial explants. In kind it is cell-based. To be noted: co-treatment with TGFβ, Example 11 2.4 μM, Example 17 0.3 μM; for progression of TGFβ-induced EMT: 5 days culture. On the procedure: Ocular tissues were collected from postnatal-day-21 albino Wistar rats (Rattus norvegicus) that were sacrificed by asphyxiation and subsequent cervical dislocation.
(§1) Lens epithelial explants were prepared as previously described (Wang Q, et al., Investigative ophthalmology & visual science. 2010; 51(7):3599-610) and cultured in Medium 199 (M199) with Earle's salts (Life Technologies, USA), supplemented with 50 μg/mL L-glutamine, 50 IU/mL penicillin/50 μg/mL streptomycin (Thermo Scientific, USA), 2.5 μg/mL Amphostat B (Thermo Scientific, USA) and 0.1% bovine serum albumin (BSA) (Sigma, USA). M199 was equilibrated at 37° C., 5% CO2. To induce EMT, recombinant TGF-β2 was added to media in each culture dish at a working concentration of […] (R&D Systems, USA). Prior to the addition of TGF-β2, some explants were pre-treated for 30 minutes with Example 11 or Example 17, at working concentrations of 2.4 μM and 0.3 μM, respectively. The progression of EMT in live cells was observed and captured using phase-contrast microscopy (Olympus CK2, Japan) and a digital camera (Leica DFC-280, Germany). Percentage cell loss quantification was performed using the thresholding function of ImageJ (NIH), such that cells could be distinguished from bare lens capsule.

The test system of experiment [3] is human brain micro-vascular endothelial cells. The experiment in a line: In vitro stroke model: endothelial cells subjected to hypoxia and glucose deprivation. In kind it is cell-based. As to conditions: hypoxia and glucose deprivation 5 h (Example 44: 6 h), viability after 24 hours of culture. On the procedure:
FIG. 1 is a bar chart showing cell viability as a ratio of basal cell viability of human brain microvascular endothelial cells subjected to hypoxia and starvation (OGD: oxygen and glucose deprivation) for 5 h and then cultured for 24 h in the absence or presence of Example 11 at a concentration of 2, 10 or 20 μM. Basal=no hypoxia or starvation, cells cultured in the presence of culture medium only. OGD=5 h of hypoxia or starvation, cells cultured in the presence of culture medium only.
FIG. 2 is a bar chart showing cell viability as a ratio of basal cell viability of human brain microvascular endothelial cells subjected to hypoxia and starvation (OGD) for 5 h and then cultured for 24 h in the absence or presence of Example 17 at a concentration of 0.3, 3 or 10 μM. Basal=no hypoxia or starvation, cells cultured in the presence of culture medium only. OGD=5 h of hypoxia or starvation, cells cultured in the presence of culture medium only.
FIG. 3 is a bar chart showing cell viability as a ratio of basal cell viability of human brain microvascular endothelial cells subjected to hypoxia and starvation (OGD: oxygen and glucose deprivation) for 6 h and then cultured for 24 h in the absence or presence of Example 44 at a concentration of from 0.6 to 9.6 μM. Basal=no hypoxia or starvation, cells cultured in the presence of culture medium only. OGD=6 h of hypoxia or starvation, cells cultured in the presence of culture medium only (*p<0.05, ***p<0.001).
Hippocampal brain slices and human brain micro-vascular endothelial cells were subjected to hypoxia and glucose deprivation (starvation) for 5 hours and were tested for viability after 24 hours of culture in the presence of Example 11 or Example 17 at different concentrations. Additionally, human brain micro-vascular endothelial cells were subjected to hypoxia and glucose deprivation (starvation) for 6 hours and were tested for viability after 24 hours of culture in the presence of Example 44 at various concentrations.

For experiment [4], the system named is rat lens epithelial explants. The experiment in a line: qRT-PCR gene expression analysis in TGFβ-treated rat lens epithelial explants. To be noted: 48 hours of culture, Example 11 2.4 μM, Example 17 0.3 μM; for aSMA expression (mRNA): Example 17 at a higher degree than Example 11. In kind it is cell-based. On the procedure:
as §1
Quantitative RT-PCR (qRT-PCR) gene expression analysis was performed as previously described (Shu D, et al., Investigative ophthalmology & visual science. 2017; 58(2):781-96.).
For data analysis, the 2^-ΔΔCt method was used to estimate the relative fold change in gene expression. Using the 2^-ΔΔCt method, the gene of interest was quantified relative to, firstly, the housekeeping gene, GAPDH and, secondly, to relative gene expression in untreated explants.
(In general: Quantitative PCR measures a nucleic acid by following its amplification.)

For experiment [5], the target named is Nox4 expressing HEK293 cells (Homo sapiens (Human), UniProt Q9NPH5). The experiment in a line: Oxygen consumption in Nox4 expressing HEK293 cells. In kind it is cell-based.
Another experiment concerns the target hNox4 (Homo sapiens (Human), UniProt Q9NPH5). Kind of experiment: hNox4 membrane assay (Amplex Red, cell-free). In kind it is biochemical. On the procedure: Reactive oxygen produced in whole cells or in membrane preparation of Nox1, Nox3, Nox4, Nox5 and xanthine oxidase and glucose oxidase were determined using Amplex Red as detection probe of formed H2O2. Amplex Red (10-acetyl-3,7-dihydroxyphenoxazine) in combination with HRP and co-factors reacts with H2O2 in a 1:1 stoichiometry to form a highly fluorescent resorufin excitated at 544 nm producing emission at 590 nm.
Membranes from transfected cells overexpressing Nox1 (CHO), Nox2 (PLB), Nox3 (HEK), Nox4 (HEK) or Nox5 (HEK) were prepared as described in Pailcz et al., 2001, J. Biol. Chem, 76, 3090-3097. Cells were suspended and homogenized in sonication buffer containing PBS, sucrose (11%), NaCl (120 mM) and EGTA (1 mM) supplemented with protease inhibitors and further processed and then broken by sonication cooled with an ice bath. Then the sample was centrifuged at 200×g for 10 min. Supernatant was carefully added on top of a 17/40% discontinuous sucrose gradient and centrifuged at 150 000×g for 60 min. Membranes containing Nox isoforms were collected at the 17/40% sucrose interface as described by Jaquet V, et al., Br J Pharmacol 2011; 164:507-520. For the Nox isoforms Nox1, Nox2, Nox3 a subunit-specific cell-free, membrane-based system has been developed and recombinant proteins of the subunits were added to receive activation of the Nox-iso forms in the cell-free assay. The Amplex Red assay was performed in black 96-well flat bottom plates. Assay reagents including HRP ([…]), FAD (6 μM), phosphatidic acid (15 μM) and Amplex Red (50 μM) were added followed by NADPH (30 μM) to initiate production of hydrogen peroxide. The production of hydrogen peroxide was followed by use of a fluorescence plate reader, read at 37° C. every minute between 30-60 minutes.

Nox4 expressing HEK293 cells, sequence (Q9NPH5 whole entry): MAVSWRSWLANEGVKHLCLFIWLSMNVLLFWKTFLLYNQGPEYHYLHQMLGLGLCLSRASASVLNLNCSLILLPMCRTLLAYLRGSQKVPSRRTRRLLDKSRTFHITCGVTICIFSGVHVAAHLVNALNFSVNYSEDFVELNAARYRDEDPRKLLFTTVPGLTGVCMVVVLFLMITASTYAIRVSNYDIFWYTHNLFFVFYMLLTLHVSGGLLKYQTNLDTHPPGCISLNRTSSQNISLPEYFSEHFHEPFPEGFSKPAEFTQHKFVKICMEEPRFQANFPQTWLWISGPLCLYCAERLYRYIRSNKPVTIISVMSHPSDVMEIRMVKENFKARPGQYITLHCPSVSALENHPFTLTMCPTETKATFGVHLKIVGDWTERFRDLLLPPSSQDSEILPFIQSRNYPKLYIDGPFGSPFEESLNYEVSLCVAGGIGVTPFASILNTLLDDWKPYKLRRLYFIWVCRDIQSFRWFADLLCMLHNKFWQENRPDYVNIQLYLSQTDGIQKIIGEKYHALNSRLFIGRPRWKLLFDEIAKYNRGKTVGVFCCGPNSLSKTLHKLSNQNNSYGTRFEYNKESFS
Nox4 expressing HEK293 cells, sequence (P13498 2-195 partner): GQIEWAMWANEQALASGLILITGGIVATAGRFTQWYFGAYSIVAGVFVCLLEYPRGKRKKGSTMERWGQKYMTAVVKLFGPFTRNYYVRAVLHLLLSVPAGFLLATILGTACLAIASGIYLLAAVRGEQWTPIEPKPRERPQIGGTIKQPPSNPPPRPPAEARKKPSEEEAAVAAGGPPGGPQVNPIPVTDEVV
hNox4, sequence (Q9NPH5 whole entry): as the sequence (Q9NPH5 whole entry) above
hNox4, sequence (P13498 2-195 partner): as the sequence (P13498 2-195 partner) above
Nox1 expressing CHO cells, sequence (Q9Y5S8 whole entry): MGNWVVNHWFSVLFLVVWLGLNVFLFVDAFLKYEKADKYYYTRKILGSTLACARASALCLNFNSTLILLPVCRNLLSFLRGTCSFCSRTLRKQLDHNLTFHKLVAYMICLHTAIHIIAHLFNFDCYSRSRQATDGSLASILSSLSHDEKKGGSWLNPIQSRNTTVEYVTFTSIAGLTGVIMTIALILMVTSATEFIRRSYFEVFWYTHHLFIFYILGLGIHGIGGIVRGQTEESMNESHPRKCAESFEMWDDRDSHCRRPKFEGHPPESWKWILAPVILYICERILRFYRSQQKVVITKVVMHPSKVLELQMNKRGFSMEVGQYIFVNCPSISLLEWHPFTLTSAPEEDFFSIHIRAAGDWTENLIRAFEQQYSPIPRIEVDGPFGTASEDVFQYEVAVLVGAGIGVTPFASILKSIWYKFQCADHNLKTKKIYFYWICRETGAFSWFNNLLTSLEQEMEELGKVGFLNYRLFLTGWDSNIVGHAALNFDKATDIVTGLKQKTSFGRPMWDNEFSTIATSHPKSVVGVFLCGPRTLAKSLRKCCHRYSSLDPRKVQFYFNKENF
Nox1 expressing CHO cells, sequence (P13498 2-195 partner): as the sequence (P13498 2-195 partner) above

One may read the pKi as the negative decadic logarithm of the Ki, by convention in mol/L. In the case of `Cc1ccccc1CCNS(=O)(=O)c1c(Cl)cc(Br)cc1Cl` [Example 17, 4-bromo-2,6-dichloro-N-[2-(2-methylphenyl)ethyl]benzene-1-sulfonamide], the “Inhibition of oxygen consumption in Nox1 expressing CHO cells” value (“Inhibition … in Nox1 expressing CHO cells” below) in experiment [1] is “No”. Besides, in experiment [2], the “progression of TGFβ-induced EMT” value was “appeared to delay the progression of EMT” and the “morphology of remaining cells by day 5” value is listed as “some of the remaining cells appeared epithelial-like”. Further, the “neuroprotective effect (cell viability)” value in experiment [3] is “neuroprotective effect”. In experiment [4], the “TGFβ-driven upregulation of Col1A and Fn (mRNA)” value was “downregulate the TGFβ-driven upregulation of Col1A and Fn”; the “aSMA expression (mRNA)” value is listed as “downregulate aSMA expression”. Also, in experiment [5], the “Inhibition of oxygen consumption in Nox4 expressing HEK293 cells” value (“Inhibition … in Nox4 expressing HEK293 cells” for short) is listed as “yes”. The pKi on hNox4 was 6.25.

Take `Cc1cc(Cl)c(S(=O)(=O)NCCc2ccccc2O)c(C)c1O` [Example 44, 6-chloro-3-hydroxy-N-[2-(2-hydroxyphenyl)ethyl]-2,4-dimethyl-benzenesulfonamide]: the “neuroprotective effect (cell viability)” value in experiment [3] was “neuroprotective effect”.

In the case of `Cc1ccccc1CCNS(=O)(=O)c1c(C)cccc1Cl` [Example 11, 2-chloro-6-methyl-N-[2-(2-methylphenyl)ethyl]benzene-1-sulfonamide], the “Inhibition … in Nox1 expressing CHO cells” value in experiment [1] was “No”. In experiment [2], the “progression of TGFβ-induced EMT” value was “a similar effect was obtained” and the “morphology of remaining cells by day 5” value is recorded as “some of the remaining cells appeared epithelial-like”. Also, the “neuroprotective effect (cell viability)” value in experiment [3] is recorded as “neuroprotective effect”. For the same compound, in experiment [4], the “TGFβ-driven upregulation of Col1A and Fn (mRNA)” value is “downregulate the TGFβ-driven upregulation of Col1A and Fn”; the “aSMA expression (mRNA)” value was “downregulate aSMA expression”. For the same compound, the “Inhibition … in Nox4 expressing HEK293 cells” value in experiment [5] is listed as “yes”. Further, the pKi on hNox4 was 5.36.

For `O=S(=O)(NCCc1ccccc1Cl)c1c(Cl)cc(C2CC2)cc1Cl` [Example 26, 2,6-dichloro-N-[2-(2-chlorophenyl)ethyl]-4-cyclopropylbenzene-1-sulfonamide], the “Inhibition … in Nox1 expressing CHO cells” value in experiment [1] is reported as “No”. Also, the “Inhibition … in Nox4 expressing HEK293 cells” value in experiment [5] is reported as “yes”. For the same compound, the pKi on hNox4 is 5.66.
